This test addresses T1, full length SGK1 (Homo sapiens, UniProt O00141).
T1 construct: 125 μM full length SGK1 (Life Technologies Part #PR7358A); purchased Life Technologies PR7358A
T1 sequence (O00141 1-431): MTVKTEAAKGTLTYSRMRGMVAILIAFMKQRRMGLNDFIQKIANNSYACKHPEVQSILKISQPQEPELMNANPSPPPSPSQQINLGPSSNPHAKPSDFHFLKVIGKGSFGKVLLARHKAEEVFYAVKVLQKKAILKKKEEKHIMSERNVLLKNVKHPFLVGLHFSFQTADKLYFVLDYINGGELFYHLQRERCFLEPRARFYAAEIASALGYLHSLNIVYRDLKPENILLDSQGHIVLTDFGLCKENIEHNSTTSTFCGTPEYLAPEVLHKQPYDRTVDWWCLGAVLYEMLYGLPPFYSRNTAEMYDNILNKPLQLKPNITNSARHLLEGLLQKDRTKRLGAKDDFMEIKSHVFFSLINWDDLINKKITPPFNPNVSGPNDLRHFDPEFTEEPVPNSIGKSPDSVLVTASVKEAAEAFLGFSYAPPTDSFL
Briefly: SGK1 inhibition Assay A (Caliper LabChip electrophoretic separation of fluorescent peptide substrate and phosphorylated product). It is filed as biochemical. Conditions: Assay A; 20 μM ATP, 40 min incubation; read-out: SGK1 IC50.

We go through 25 molecules from US20260250290A1 (BRISTOL-MYERS SQUIBB COMPANY, priority 2023, published 2026).

Counter-ions that a name gives are not always drawn.

One may read the IC50 as the concentration at which inhibition is half-maximal. Take `CS(=O)(=O)N1CC=C(c2cc(N3CCC[C@@H](NC(=O)c4sc(Cl)cc4OCCN4CCOCC4)C3)c3c(N)ncnn23)C1` [Example 142, (R)—N-(1-(4-amino-7-(1-(methylsulfonyl)-2,5-dihydro-1H-pyrrol-3-yl)pyrrolo[2,1-f][1,2,4]triazin-5-yl)piperidin-3-yl)-5-chloro-3-(2-morpholinoethoxy)thiophene-2-carboxamide, TFA]: the IC50 came to 9 nM.
In the case of `CC1(NC(=O)c2ccc(Cl)s2)CCCN(c2cc(-c3ccc(S(C)(=O)=O)cc3)n3ncnc(N)c23)C1` (stereo not shown) [Example 145, N-(1-(4-amino-7-(4-(methylsulfonyl)phenyl)pyrrolo[2,1-f][1,2,4]triazin-5-yl)-3-methylpiperidin-3-yl)-5-chlorothiophene-2-carboxamide, TFA] it was 765 nM; in that of `C[C@@]1(NC(=O)c2ccc(Cl)s2)CCCN(c2cc(-c3ccc(S(C)(=O)=O)cc3)n3ncnc(N)c23)C1` [Example 146, (R)—N-(1-(4-amino-7-(4-(methylsulfonyl)phenyl)pyrrolo[2,1-f][1,2,4]triazin-5-yl)-3-methylpiperidin-3-yl)-5-chlorothiophene-2-carboxamide, TFA], 835 nM; in that of `COCCOc1cc(Cl)sc1C(=O)N[C@@H]1CCCN(c2cc(-c3ccnc(F)c3)n3ncnc(N)c23)C1` [Example 147, (R)-N-(1-(4-amino-7-(2-fluoropyridin-4-yl)pyrrolo[2,1-f][1,2,4]triazin-5-yl)piperidin-3-yl)-5-chloro-3-(2-methoxyethoxy)thiophene-2-carboxamide], 4 nM.
In the case of `Nc1ncnn2c(-c3ccnc(F)c3)cc(N3CCC[C@@H](NC(=O)c4sc(Cl)cc4OCCN4CCOCC4)C3)c12` [Example 148, (R)-N-(1-(4-amino-7-(2-fluoropyridin-4-yl)pyrrolo[2,1-f][1,2,4]triazin-5-yl)piperidin-3-yl)-5-chloro-3-(2-morpholinoethoxy) thiophene-2-carboxamide, TFA] it was 5 nM; in that of `CN(C)CCOc1cc(Cl)sc1C(=O)N[C@@H]1CCCN(c2cc(-c3ccnc(F)c3)n3ncnc(N)c23)C1` [Example 149, (R)-N-(1-(4-amino-7-(2-fluoropyridin-4-yl)pyrrolo[2,1-f][1,2,4]triazin-5-yl)piperidin-3-yl)-5-chloro-3-(2-(dimethylamino)ethoxy) thiophene-2-carboxamide, TFA], 1 nM; in that of `Nc1ncnn2c(-c3ccnc(F)c3)cc(N3CCC[C@@H](NC(=O)c4cc(Cl)c(Cl)s4)C3)c12` [Example 150, (R)-N-(1-(4-amino-7-(2-fluoropyridin-4-yl)pyrrolo[2,1-f][1,2,4]triazin-5-yl)piperidin-3-yl)-4,5-dichlorothiophene-2-carboxamide], 5 nM.
Next, `Nc1ncnn2c(-c3ccnc(F)c3)cc(N3CCC[C@@H](NC(=O)Cc4ccc(Cl)s4)C3)c12` [Example 151, (R)-N-(1-(4-amino-7-(2-fluoropyridin-4-yl)pyrrolo[2,1-f][1,2,4]triazin-5-yl)piperidin-3-yl)-2-(5-chlorothiophen-2-yl)acetamide]: 285 nM; `Nc1ncnn2c(-c3ccnc(F)c3)cc(N3CCC[C@@H](NC(=O)c4ccc(C(F)F)s4)C3)c12` [Example 152, (R)-N-(1-(4-amino-7-(2-fluoropyridin-4-yl)pyrrolo[2,1-f][1,2,4]triazin-5-yl)piperidin-3-yl)-5-(difluoromethyl)thiophene-2-carboxamide, TFA]: 5 nM; `Nc1ncnn2c(-c3ccnc(F)c3)cc(N3CCC[C@@H](NC(=O)c4cccs4)C3)c12` [Example 153, (R)-N-(1-(4-amino-7-(2-fluoropyridin-4-yl)pyrrolo[2,1-f][1,2,4]triazin-5-yl)piperidin-3-yl)thiophene-2-carboxamide]: 1 nM.
In the case of `Nc1ncnn2c(-c3ccnc(F)c3)cc(N3CCC[C@@H](NC(=O)c4ccc(C(F)(F)F)s4)C3)c12` [Example 154, (R)-N-(1-(4-amino-7-(2-fluoropyridin-4-yl)pyrrolo[2,1-f][1,2,4]triazin-5-yl)piperidin-3-yl)-5-(trifluoromethyl)thiophene-2-carboxamide, TFA], the IC50 was determined as 7 nM.
In the case of `Nc1ncnn2c(-c3ccnc(F)c3)cc(N3CCC[C@@H](NC(=O)c4ccsc4)C3)c12` [Example 155, (R)-N-(1-(4-amino-7-(2-fluoropyridin-4-yl)pyrrolo[2,1-f][1,2,4]triazin-5-yl)piperidin-3-yl)thiophone-3-carboxamide] it was 2 nM.
In the case of `COc1cscc1C(=O)N[C@@H]1CCCN(c2cc(-c3ccnc(F)c3)n3ncnc(N)c23)C1` [Example 156, (R)-N-(1-(4-amino-7-(2-fluoropyridin-4-yl)pyrrolo[2,1-f][1,2,4]triazin-5-yl)piperidin-3-yl)-4-methoxythiophene-3-carboxamide] it was 3 nM; in that of `Nc1ncnn2c(-c3ccnc(F)c3)cc(N3CCC[C@@H](NC(=O)c4cc(Cl)sc4Cl)C3)c12` [Example 157, (R)-N-(1-(4-amino-7-(2-fluoropyridin-4-yl)pyrrolo[2,1-f][1,2,4]triazin-5-yl)piperidin-3-yl)-2,5-dichlorothiophene-3-carboxamide], 15 nM.
Next, `COc1c(C(=O)N[C@@H]2CCCN(c3cc(-c4ccnc(F)c4)n4ncnc(N)c34)C2)csc1Cl` [Example 158, (R)-N-(1-(4-amino-7-(2-fluoropyridin-4-yl)pyrrolo[2,1-f][1,2,4]triazin-5-yl)piperidin-3-yl)-5-chloro-4-methoxythiophene-3-carboxamide]: 6 nM; `Nc1ncnn2c(-c3ccnc(F)c3)cc(N3CCC[C@@H](NC(=O)c4csc5ccccc45)C3)c12` [Example 159, (R)-N-(1-(4-amino-7-(2-fluoropyridin-4-yl)pyrrolo[2,1-f][1,2,4]triazin-5-yl)piperidin-3-yl)benzo[b]thiophene-3-carboxamide, TFA]: 17 nM; `Nc1ncnn2c(-c3ccnc(F)c3)cc(N3CCC[C@@H](NC(=O)c4csc5c4CCCC5)C3)c12` [Example 160, (R)-N-(1-(4-amino-7-(2-fluoropyridin-4-yl)pyrrolo[2,1-f][1,2,4]triazin-5-yl)piperidin-3-yl)-4,5,6,7-tetrahydrobenzo[b] thiophene-3-carboxamide, TFA]: 20 nM.
In the case of `Nc1ncnn2c(-c3ccnc(F)c3)cc(N3CCC[C@@H](NC(=O)c4csc(Cl)c4)C3)c12` [Example 161, (R)-N-(1-(4-amino-7-(2-fluoropyridin-4-yl)pyrrolo[2,1-f][1,2,4]triazin-5-yl)piperidin-3-yl)-5-chlorothiophone-3-carboxamide], the IC50 worked out at 2 nM.
Next, `COCCOc1cc(Cl)sc1C(=O)N[C@@H]1CCCN(c2cc(-c3ccc(C(N)=O)c(F)c3)n3ncnc(N)c23)C1` [Example 162, (R)-N-(1-(4-amino-7-(4-carbamoyl-3-fluorophenyl)pyrrolo [2,1-f][1,2,4]triazin-5-yl)piperidin-3-yl)-5-chloro-3-(2-methoxyethoxy) thiophene-2-carboxamide]: 5 nM; `NC(=O)c1ccc(-c2cc(N3CCC[C@@H](NC(=O)c4sc(Cl)cc4OCCN4CCOCC4)C3)c3c(N)ncnn23)cc1F` [Example 163, (R)-N-(1-(4-amino-7-(4-carbamoyl-3-fluorophenyl)pyrrolo [2,1-f][1,2,4]triazin-5-yl)piperidin-3-yl)-5-chloro-3-(2-morpholinoethoxy) thiophene-2-carboxamide, TFA]: 6 nM.
In the case of `CN(C)CCOc1cc(Cl)sc1C(=O)N[C@@H]1CCCN(c2cc(-c3ccc(C(N)=O)c(F)c3)n3ncnc(N)c23)C1` [Example 164, (R)-N-(1-(4-amino-7-(4-carbamoyl-3-fluorophenyl)pyrrolo [2,1-f][1,2,4]triazin-5-yl)piperidin-3-yl)-5-chloro-3-(2-(dimethylamino)ethoxy)thiophene-2-carboxamide, 2 TFA] it was 2 nM; in that of `CC(C)(O)CCOc1cc(Cl)sc1C(=O)N[C@@H]1CCCN(c2cc(-c3ccnc(F)c3)n3ncnc(N)c23)C1` [Example 166, (R)—N-(1-(4-amino-7-(2-fluoropyridin-4-yl)pyrrolo[2,1-f][1,2,4]triazin-5-yl)piperidin-3-yl)-5-chloro-3-(3-hydroxy-3-methylbutoxy)thiophene-2-carboxamide], 3 nM; in that of `CN1CCN(CCOc2cc(Cl)sc2C(=O)N[C@@H]2CCCN(c3cc(-c4ccnc(F)c4)n4ncnc(N)c34)C2)CC1` [Example 167, (R)—N-(1-(4-amino-7-(2-fluoropyridin-4-yl)pyrrolo[2,1-f][1,2,4]triazin-5-yl)piperidin-3-yl)-5-chloro-3-(2-(4-methylpiperazin-1-yl)ethoxy)thiophene-2-carboxamide, 2 TFA], 1 nM.
Next, `C=Cc1cc(C)sc1C(=O)N[C@@H]1CCCN(c2cc(-c3ccnc(F)c3)n3ncnc(N)c23)C1` [Example 169, (R)—N-(1-(4-amino-7-(2-fluoropyridin-4-yl)pyrrolo[2,1-f][1,2,4]triazin-5-yl)piperidin-3-yl)-5-methyl-3-vinylthiophene-2-carboxamide]: 12 nM; `Cc1cc(Br)c(C(=O)N[C@@H]2CCCN(c3cc(-c4ccnc(F)c4)n4ncnc(N)c34)C2)s1` [Example 170, (R)—N-(1-(4-amino-7-(2-fluoropyridin-4-yl)pyrrolo[2,1-f][1,2,4]triazin-5-yl)piperidin-3-yl)-3-bromo-5-methylthiophene-2-carboxamide]: 6 nM.
